In brackets after ≈: the same amount, converted by molar mass.
Tests used:
[1] = test system: Y. pestis A1122; assay: microbe, parasite or virus in culture; format: cell-based; settings: Yersinia pestis, A1122, read-out: MIC (μg/ml) Y. pestis
[2] = test system: B. thialandensis Bt38; assay: MIC against B. thialandensis; format: cell-based; settings: read-out: MIC (μg/ml) B. thialandensis Bt.38 (efflux^−)
[3] = test system: M. tuberculosis H37Rv; assay: MIC against M. tuberculosis; format: cell-based; settings: Mycobacterium tuberculosis; MIC99; H37Rv; read-out: MIC (μg/ml) M. tb (MIC99)
[4] = test system: M. smegmatis MC^2155; assay: MIC against M. smegmatis; format: cell-based; settings: Mycolicibacterium smegmatis, MC^2155; MIC90; read-out: MIC (μg/ml) M. smeg
[5] = test system: S. aureus RN4220; assay: MIC against S. aureus RN4220 (MSSA); format: cell-based; settings: Staphylococcus aureus, MIC90, read-out: MIC (μg/ml) Staph. aureus RN4220 MSSA
[6] = test system: F. tularensis LVS; assay: microbe, parasite or virus in culture; format: cell-based; settings: Francisella tularensis, read-out: MIC (μg/ml) F. tu
[7] = test system: S. aureus BAA1762; assay: MIC against S. aureus BAA1762 (MRSA); format: cell-based; settings: Staphylococcus aureus; MIC90; read-out: MIC (μg/ml) Staph. aureus BAA1762 MRSA
[8] = target: wild-type apo-KasA (Mycobacterium tuberculosis, UniProt P9WQD9); assay: biochemical; format: binding
Sequence of wild-type apo-KasA (P9WQD9 whole entry): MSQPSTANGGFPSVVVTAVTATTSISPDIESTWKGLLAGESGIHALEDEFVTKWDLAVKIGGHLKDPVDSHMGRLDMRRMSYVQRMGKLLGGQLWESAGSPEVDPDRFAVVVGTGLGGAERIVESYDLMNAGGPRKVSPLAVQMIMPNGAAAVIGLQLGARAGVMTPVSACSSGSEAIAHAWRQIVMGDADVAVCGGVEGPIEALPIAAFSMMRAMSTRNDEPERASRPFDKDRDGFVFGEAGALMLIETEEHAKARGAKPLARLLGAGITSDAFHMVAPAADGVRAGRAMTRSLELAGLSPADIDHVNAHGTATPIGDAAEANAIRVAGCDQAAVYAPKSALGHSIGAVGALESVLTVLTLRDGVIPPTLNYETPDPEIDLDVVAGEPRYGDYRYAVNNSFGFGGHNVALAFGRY

[9] = test system: B. pseudomallei Bp82z66; assay: microbe, parasite or virus in culture; format: cell-based; settings: Burkholderia pseudomallei, BP82Z66, read-out: MIC (μg/ml) B. pseudomallei

Compound	MIC [1]	MIC [2]	MIC99 [3]	MIC [4]	MIC [5]	MIC [6]	MIC [7]	Ki [8]	Kd ([8]; Kd (μM) apo-KasA, Table 1, wild-type apo-KasA, fluorescence spectroscopy)	MIC [9]
C=C/C(C)=C/[C@@]1(C)SC(=O)C=C1O [TLM2, 5R-(+)-3-Demethylthiolactomycin]	250 µg/mL (≈ 1270 µM)	148 µg/mL (≈ 756 µM)	> 100 µg/mL	> 100 µg/mL	150 µg/mL (≈ 764 µM)	124 µg/mL (≈ 631 µM)	100 µg/mL (≈ 509 µM)	–	–	–
C=C/C(C)=C/[C@@]1(C)SC(=O)C(CC)=C1O [TLM3, 5R-(+)-3-Ethylthiolactomycin]	145 µg/mL (≈ 645 µM)	148 µg/mL (≈ 661 µM)	< 7.8 µg/mL	> 100 µg/mL	150 µg/mL (≈ 669 µM)	6.9 µg/mL (≈ 30.8 µM)	125 µg/mL (≈ 557 µM)	–	–	–
C=C/C(C)=C/[C@@]1(C)SC(=O)C(CCC)=C1O [TLM4, 5R-(+)-3-Propylthiolactomycin]	250 µg/mL (≈ 1050 µM)	250 µg/mL (≈ 1050 µM)	12.5 µg/mL (≈ 52.4 µM)	> 100 µg/mL	> 200 µg/mL	25.8 µg/mL (≈ 108 µM)	> 200 µg/mL	–	–	–
C=C/C(C)=C/[C@@]1(C)SC(=O)C(CCc2ccc(C)cc2)=C1O [TLM5]	250 µg/mL (≈ 795 µM)	250 µg/mL (≈ 795 µM)	25 µg/mL (≈ 79.5 µM)	> 100 µg/mL	> 64 µg/mL	3.45 µg/mL (≈ 11 µM)	> 100 µg/mL	–	–	–
C=C/C(C)=C/[C@@]1(C)SC(=O)C(CCCCc2ccc(F)cc2)=C1O [TLM6]	250 µg/mL (≈ 722 µM)	250 µg/mL (≈ 722 µM)	25 µg/mL (≈ 72.2 µM)	> 100 µg/mL	> 64 µg/mL	3.15 µg/mL (≈ 9.1 µM)	75 µg/mL (≈ 216 µM)	–	–	–
C=C/C(C)=C/[C@@]1(C)SC(=O)C(CCCCc2ccc(Cl)cc2)=C1O [TLM7]	250 µg/mL (≈ 689 µM)	81 µg/mL (≈ 223 µM)	25 µg/mL (≈ 68.9 µM)	> 100 µg/mL	64 µg/mL (≈ 176 µM)	1.73 µg/mL (≈ 4.77 µM)	50 µg/mL (≈ 138 µM)	–	–	–
C=C/C(C)=C/[C@@]1(C)SC(=O)C(CCCCc2ccc(Br)cc2)=C1O [TLM8]	250 µg/mL (≈ 614 µM)	126 µg/mL (≈ 309 µM)	25 µg/mL (≈ 61.4 µM)	> 100 µg/mL	32 µg/mL (≈ 78.6 µM)	2.17 µg/mL (≈ 5.33 µM)	50 µg/mL (≈ 123 µM)	–	–	–
C=C/C(C)=C/[C@@]1(C)SC(=O)C(CCCCc2ccc(-c3ccccc3)cc2)=C1O [TLM9]	250 µg/mL (≈ 618 µM)	145 µg/mL (≈ 359 µM)	50 µg/mL (≈ 124 µM)	–	16 µg/mL (≈ 39.5 µM)	1.97 µg/mL (≈ 4.88 µM)	25 µg/mL (≈ 61.8 µM)	–	–	–
C=C/C(C)=C/[C@@]1(C)SC(=O)C(CCCN=[N+]=[N-])=C1O [TLM10]	250 µg/mL (≈ 895 µM)	250 µg/mL (≈ 895 µM)	12.5 µg/mL (≈ 44.7 µM)	–	> 64 µg/mL	23.5 µg/mL (≈ 84.1 µM)	> 100 µg/mL	233 ± 7 µM	233 ± 7 µM	–
C=C/C(C)=C/[C@@]1(C)SC(=O)C=C1OCC(=O)NCCn1cc(CNC(=O)[C@H](O)C(C)(C)CO)nn1 [TLM26]	–	–	> 100 µg/mL	–	> 64 µg/mL	159 µg/mL (≈ 313 µM)	> 64 µg/mL	–	–	150 µg/mL (≈ 295 µM)
C=C/C(C)=C/[C@@]1(C)SC(=O)C(CCc2ccc(Cl)cc2)=C1O [TLM31]	250 µg/mL (≈ 747 µM)	250 µg/mL (≈ 747 µM)	25 µg/mL (≈ 74.7 µM)	–	64 µg/mL (≈ 191 µM)	3.1 µg/mL (≈ 9.24 µM)	100 µg/mL (≈ 299 µM)	–	–	–
C=C/C(C)=C/[C@@]1(C)SC(=O)C(CCCCN=[N+]=[N-])=C1O [TLM32]	250 µg/mL (≈ 852 µM)	250 µg/mL (≈ 852 µM)	50 µg/mL (≈ 170 µM)	–	> 64 µg/mL	15.3 µg/mL (≈ 52.3 µM)	> 100 µg/mL	–	–	–
C=C/C(C)=C/[C@@]1(C)SC(=O)C(CCCCn2cc(CNC(=O)[C@H](O)C(C)(C)CO)nn2)=C1O [TLM33]	250 µg/mL (≈ 522 µM)	250 µg/mL (≈ 522 µM)	> 100 µg/mL	–	> 64 µg/mL	250 µg/mL (≈ 522 µM)	> 100 µg/mL	–	–	–

— patent publication US9056851B2, “Thiolactone antibiotics” (priority 2011, dated 2015)
